From patent publication US6552066B1, “Protein tyrosine kinase inhibitors for treating osteoarthritis” (priority 1995, dated 2003) come the findings set out here.

One assay relates to stromelysin mRNA. The assay can be described thus: Northern blot of IL-1-induced stromelysin mRNA in primary bovine chondrocytes. The assay is classed as cell-based. As to conditions: 2 h preincubation, IL-1α 1 ng/ml 24 hours. On the procedure:
The isolation of cartilage and the enzymatic degradation of cartilage was carried out as described in Example 1.
Chondrocytes were recovered by addition of an equal volume of DMEM/F12 supplemented with 10% fetal bovine serum (FBS) to neutralize enzymes, filtration through a 70μm nylon Cell Strainer (Falcon), and centrifugation at 1000×g for ten minutes at room temperature. Chondrocytes were seeded in T-150 plates at 5×10^4 cells/cm^2 using 1:1 DMEM/F12, 10% FBS, 1% antibiotic solution (penicillin, streptomycin, fungizone: GIBCO/BRL), and incubated at 37° C., 5% CO2. Cells were refed with DMEM/F12 plus 10% FBS on days 4, 7, and 10. On day 11, test cultures (except for the+interleukin 1α control) were rinsed in phosphate buffered saline (PBS), and preincubated for 2 hours with 5 ml of serum-free DMEM/F12 containing one of the following protein kinase inhibitors:
1) Protein kinase A (PKA) inhibitors; 0.5 μM H88 (Seikagaku Corp.), 0.5 μMH89 (Seikagaku Corp.); 2) Protein kinase G (PKG) and PKA inhibitor; 5.0 μM H89; 3) Protein kinase C. (PKC) inhibitors; 0.5 μM Calphostin C (Calbiochem), 1.0 μM chelerythrine (Calbiochem); 4) CA^2+/Calmodulin Kinase II inhibitor; 5.0 μM KN93 (Seikagaku Corp.); 5) Protein tyrosine kinase (PTK) inhibitors; 50 μM Genistein (Calbiochem), 10 μM Herbimycin A (Calbiochem), 50 μM Tyrphostin A25 (AG 82) (Calbiochem), 50 μm Tyrphostin AG 126 (Calbiochem), 50 μM Tyrphostin B56 (AG 556) (Calbiochem), 20 μM DAPH (Calbiochem).
Recombinant human interleukin 1 α (IL-1α) (R & D Systems) at 1 ng/ml was then added to all cultures (except the IL-1α control) for 24 hours in serum-free DMEM/F12 containing 1% antibiotic solution.
RNA on the Northern blot was fixed to the membrane by baking at 80° C. for 30 minutes.
Prehybridization (1.5 hours) and hybridization (overnight) of the Northern blot with the radioactive probes were performed in 50% formamide, 1×GIBCO/BRL hybridization solution, 0.1% SDS, and 10mM monobasic sodium phosphate, at 42° C. The blot was successively washed two times in 1×SSC/0.1% SDS (15 minutes/wash at room temperature), and two times in 0.2×SSC/0.1% SDS (30 minutes/wash at 55° C.). The blot was allowed to air dry, and was exposed to X-ray film, with intensifying screen, overnight at −70° C.

Another assay deals with prostromelysin protein. The assay can be described thus: Western immunoblot of IL-1-induced prostromelysin protein in primary bovine chondrocytes. The assay is classed as cell-based. The settings on record: for effect on IL-1α-induced prostromelysin protein levels: repeat experiment; for effect on IL-1-induced prostromelysin levels: first experiment. The procedure:
Isolation and culturing of primary bovine articular chondrocytes, as well as addition of inhibitors were performed as indicated above in Example 4. The following protein kinase inhibitors were tested: 1) Protein kinase A (PKA) inhibitors; 0.5 μM H88 (Seikagaku Corp.), 0.5 μM H89 (Seikagaku Corp.), 2) Protein kinase C (PKC) inhibitors; 0.5 μM Calphostin C (Calbiochem), 1.0 μM Chelerythrine (Calbiochem); 3) CA^2+/Calmodulin Kinase II inhibitor; 5.0 μM KN93 (Seikagaku Corp.); 4) Protein tyrosine kinase (PTK) inhibitors; 50 μM Genistein (Calbiochem), 10 μM Herbimycin A (Calbiochem).
After the 24 hour IL-1α incubation, the media of each sample was measured and collected on ice in the presence of the protease inhibitors EGTA (5 mM), Pefabloc (1 mM), pepstatin (1 μg/ml), and NEM (5 mM). Media were concentrated approximately 40 fold using a Centriprep-10 ultrafiltration device (Amicon). Concentrated samples were normalized to equivalent starting concentrations (cell number/culture volume), were reduced in the presence of SDS Laemmli sample buffer and electrophoresed in a precast 12% polyacrylamide gel (BioRad). Protein samples were then electroblotted to nitrocellulose and immunodetected using a primary antibody that recognizes both prostromelysin and stromelysin. Immunoreactive bands were visualized with the ABC detection (Pierce) and an NBT/BCIP color reagent (Sigma).
A repeat of the Western immunoblotting experiment using antistromelysin antibodies was performed. Furthermore, additional inhibitors from four enzyme families were examined: 1) Protein tyrosine kinase (PTK) inhibitors: 1 μM Tyrphostin AG 1296 (Calbiochem), 50 μM Tyrphostin A25 (AG 82) (Calbiochem), 50 μM Tyrphostin AG 126 (Calbiochem); 2) Guanylate cyclase inhibitor; 10 μM LY-83583 (Calbiochem); 3) Casein kinase I inhibitor; 20 μM CKI-7 (Seikagaku Corp.); and 4) Protein kinase G (PKG) and PKA inhibitor; 5.0 μM H89.
Background: A western blot detects proteins with antibodies after separation by electrophoresis.

Setting [1] is: concentration not printed in Example 5.

Molecules are shown by their SMILES.

As to `N#CC(C#N)=Cc1ccc([N+](=O)[O-])c(O)c1` [Tyrphostin AG 126], the “inhibition of IL-1-induced upregulation of stromelysin mRNA levels” value (“inhibition” for short) in the assay with stromelysin mRNA (50 μM) was “no effect”. Also, the “effect on IL-1α-induced prostromelysin protein levels” value with prostromelysin protein (50 μM) was “no effect”.

On to `N#CC(C#N)=Cc1cc(O)c(O)c(O)c1` [Tyrphostin AG 82], for which the “inhibition” value in the assay on stromelysin mRNA (50 μM) is listed as “no effect”. For the same compound, in the assay on prostromelysin protein (50 μM), the “effect on IL-1α-induced prostromelysin protein levels” value was “slight inhibitory activity”.

Consider `N#C/C(=C\c1ccc(O)c(O)c1)C(=O)NCCCCc1ccccc1` [Tyrphostin AG 556], for which the “inhibition” value with stromelysin mRNA (50 μM) was “Total inhibition”. Besides, in the assay on prostromelysin protein (setting [1]), the “effect on IL-1α-induced prostromelysin protein levels” value is reported as “dramatic reduction”.

Regarding `O=C1NC(=O)c2cc(Nc3ccccc3)c(Nc3ccccc3)cc21` [DAPH, 4,5-dianilinophthalimide], the “inhibition” value with stromelysin mRNA (20 μM) was “Total inhibition”. The “effect on IL-1α-induced prostromelysin protein levels” value with prostromelysin protein (setting [1]) is “dramatic reduction”.

Turning to `CO[C@H]1[C@@H](OC)C[C@H](C)[C@@H](OC)C2=CC(=O)C=C(NC(=O)/C(C)=C/C=C\[C@H](OC)[C@@H](OC(N)=O)/C(C)=C/[C@@H]1C)C2=O` [Herbimycin A], the “inhibition” value in the assay on stromelysin mRNA (10 μM) was “Total inhibition”. Further, in the assay with prostromelysin protein (10 μM), the “effect on IL-1-induced prostromelysin levels” value is “completely inhibited” and the “effect on IL-1α-induced prostromelysin protein levels” value is “dramatic reduction”.

In the case of `O=c1c(-c2ccc(O)cc2)coc2cc(O)cc(O)c12` [Genistein], the “inhibition” value with stromelysin mRNA (50 μM) is on record as “Total inhibition”. In addition, in the assay on prostromelysin protein (50 μM), the “effect on IL-1-induced prostromelysin levels” value is on record as “completely inhibited” and the “effect on IL-1α-induced prostromelysin protein levels” value was “dramatic reduction”.
